Experimental findings from US7402606B2, “Derivatives of 1-(oxoaminoacetyl) pentylcarbamate as cathepsin K inhibitors for the treatment of bone loss” (SmithKline Beecham Corporation, priority 2002, dated 2008) are described below.

The assay deals with T1, human cathepsin K (Homo sapiens, UniProt P43235).
T1 construct: The proform of cathepsin K was converted to mature cathepsin K by brief exposure to pH 4; made in house; host or cells: baculovirus; Trichoplusia ni High Five cells (virus raised in Sf-9)
T1 sequence (P43235 115-329): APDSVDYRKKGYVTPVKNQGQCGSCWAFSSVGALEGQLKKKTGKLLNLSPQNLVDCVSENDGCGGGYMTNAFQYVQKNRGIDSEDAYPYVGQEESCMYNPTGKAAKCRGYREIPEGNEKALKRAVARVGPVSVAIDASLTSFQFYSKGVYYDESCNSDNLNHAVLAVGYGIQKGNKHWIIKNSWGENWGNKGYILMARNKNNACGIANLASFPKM
Briefly: Cathepsin K inhibition assay, human recombinant enzyme, fluorogenic substrate Cbz-Phe-Arg-AMC. The class given is biochemical. Conditions: Table 1, human cathepsin K; read-out: h Cat K IC50. How it is done: All assays for cathepsin K were carried out with human and rat recombinant enzyme. Assays for cathepsins S ? V were also carried out with human recombinant enzyme. Assays for human cathepsins B, H, and L were carried out with enzyme, purchased from Athens Research and Technology, Inc., prepared from human liver tissue. […] A stock substrate solution of Cbz-Phe-Arg-AMC was prepared at a concentration of 50 mM in dimethyl sulfoxide. This substrate was diluted into the assay for a final substrate concentration of 10 μM in the rat cathepsin K, human cathepsin K, and human cathepsin B assays; a final substrate concentration of 5 μM in the human cathepsin L assay; and a final substrate concentration of 2 μM in the human cathepsin V assay.
All assays contained 10% dimethyl sulfoxide. […] All assays were conducted at 30° C. Product fluorescence (excitation at 360 nm; emission at 440 nm, (except cathepsin H which used excitation at 340 nm; emission at 420 nm)) was monitored with a PerSeptive Biosystems Cytofluor II fluorescence plate reader. Product progress curves were generated over 2.3 h monitoring the formation of 7-amino-4-methylcoumarin product (or β-naphthalamide for cathepsin H).
Human and rat Cathepsin K:
Two liters of Spodoptera frugiperda (Sf-9) cells (ATCC) were grown in Grace's Supplemented medium (Life Technologies) supplemented with 2 g/L glucose, 10% fetal bovine serum (HyClone) and 0.1% pluronic F-68 (Life Technologies). […] The cells continued to grow for 72 h post-infection, before the virus was harvested by centrifugation at 1400×g for 30 min.
One and one-half liters of Trichoplusia ni (T. ni) High Five (™) cells [JRH Biosciences, Woodland, Calif. […] The cells were grown for 24 h at 28° C., 50 RPM, and 50% dissolved oxygen. […] Media were separated from cells at a rate of 1 L/min using the Centritech 100 ™ continuous-flow centrifuge (DuPont) operating at 200×g.
Protein Purification: Media (human and rat) were filtered through a Whatman 3 filter, and then loaded onto a 25 mL. Poros HS II (26 mm×47 mm) cation exchange column equilibrated in 25 mM sodium acetate at pH 5.5 (equilibration buffer). The column was washed until the absorbance reached the baseline value, and then the protein was eluted with a linear gradient from 0-2 M sodium chloride in the equilibration buffer. Column fractions were analyzed by SDS-PAGE, N-terminal sequencing, and mass spectrometry. Fractions containing the proform of cathepsin K were pooled and frozen at −80° C. The proform was concentrated in an Amicon Centriprep 10 and fractionated with a Superdex 75 column (26 mm×600 mm, Pharmacia) equilibrated in 400 mM sodium chloride, 25 mM sodium acetate at pH 5.5.
Cathepsin K Activation: The proform of cathepsin K was converted to mature cathepsin K by brief exposure to pH 4 in the presence of 5 mM L-cysteine. Typically, 5 mM L-cysteine was added to 10 mL of approximately 1 mg/mL procathepsin K. One mL of this solution was diluted ten-fold into 450 mM sodium acetate at pH 4.0 containing 5 mM L-cysteine. This solution was reacted at 23° C. for 2 min before neutralization with 2 mL, 1.8 M sodium acetate at pH 6.0. The neutralized sample was added to the remaining 9 mL of procathepsin K. The mixture was incubated at 4° C. for 2-3 days. The activated cathepsin K was chromatographed on a Poros HS II column as described above.
Potential inhibitors were evaluated using the progress curve method. Assays were carried out in the presence of variable concentrations of test compound. Reactions were initiated by addition of buffered solutions of inhibitor and substrate to enzyme. Data analysis was conducted according to one of two procedures depending on the appearance of the progress curves in the presence of inhibitors. […] Ki values were calculated from IC50 values using equation 2 assuming a competitive model.
As a reminder, the IC50 is the midpoint of a concentration-inhibition curve. `CCCC[C@H](NC(=O)O[C@@H]1CN(C(=O)Oc2ccc(-c3csnn3)cc2)CC1(C)C)C(=O)C(=O)N[C@H](C)c1ccccc1` [Example 61, 4-(1,2,3-Thiadiazol-4-yl)phenyl (4S)-3,3-dimethyl-4-[({[(1S)-1-(oxo{[(1R)-1-phenylethyl]amino}acetyl)pentyl]amino}carbonyl)oxy]-1-pyrrolidinecarboxylate]: the concentration for half-maximal inhibition (IC50) lay within 10 to 100 nM. Regarding `CCCC[C@H](NC(=O)O[C@@H]1CN(C(=O)c2cc3ccccc3n2C)CC1(C)C)C(=O)C(=O)N[C@H](C)c1ccccc1` [Example 28, (3S)-4,4-Dimethyl-1-[(1-methyl-1H-indol-2-yl)carbonyl]pyrrolidinyl (1S)-1-(oxo{[(1R)-1-phenylethyl]amino}acetyl)pentylcarbamate], the IC50 is 10 to 100 nM. Take `CCCC[C@H](NC(=O)O[C@@H]1CN(C(=O)Cc2cc(C)no2)CC1(C)C)C(=O)C(=O)N[C@H](C)c1ccccc1` [Example 35, (3S)-4,4-Dimethyl-1-[(3-methyl-5-isoxazolyl)acetyl]pyrrolidinyl (1S)-1-(oxo{[(1R)-1-phenylethyl]amino}acetyl)pentylcarbamate]: the IC50 lay in the range of 1 to 10 nM. On to `CCCC[C@H](NC(=O)O[C@@H]1CN(C(=O)OCCc2scnc2C)CC1(C)C)C(=O)C(=O)N[C@H](C)c1ccccc1` [Example 51, 2-(4-Methyl-1,3-thiazol-5-yl)ethyl (4S)-3,3-dimethyl-4-[({[(1S)-1-(oxo {[(1R)-1-phenylethyl]amino}acetyl)pentyl]amino}carbonyl)oxy]-1-pyrrolidinecarboxylate], for which the 50% inhibitory concentration (IC50) was 1 to 10 nM. In the case of `CCCC[C@H](NC(=O)O[C@@H]1CN(C(=O)c2nn(-c3ccccc3)nc2C)CC1(C)C)C(=O)C(=O)N[C@H](C)c1ccccc1` [Example 15, (3S)-4,4-Dimethyl-1-[(5-methyl-2-phenyl-2H-1,2,3-triazol-4-yl)carbonyl]pyrrolidinyl (1S)-1-(oxo{[(1R)-1-phenylethyl]amino}acetyl)pentylcarbamate], the IC50 is 1 to 10 nM. On to `CCCC[C@H](NC(=O)O[C@@H]1CN(C(=O)Oc2cccc(Oc3ccccc3)c2)CC1(C)C)C(=O)C(=O)N[C@H](C)c1ccccc1` [Example 59, 3-Phenoxyphenyl (4S)-3,3-dimethyl-4-[({[(1S)-1-(oxo{[(1R)-1-phenylethyl]amino}acetyl)pentyl]amino}carbonyl)oxy]-1-pyrrolidinecarboxylate], for which the half-inhibitory concentration (IC50) is 10 to 100 nM. Turning to `CCCC[C@H](NC(=O)O[C@@H]1CN(C(=O)c2ccccc2)CC1(C)C)C(=O)C(=O)N[C@H](C)c1ccccc1` [Example 9], the half-inhibitory concentration (IC50) was in the range of 10 to 100 nM. For `CCCC[C@H](NC(=O)OC1C(=O)OC[C@]1(C)CC)C(=O)C(=O)N[C@H](C)c1ccccc1` (stereo partly drawn) [Example 3, (4S)-4-ethyl-4-methyl-2-oxotetrahydro-3-furanyl (1S)-1-(oxo{[(1R)-1-phenylethyl]amino}acetyl)pentylcarbamate] the value was 1 to 10 nM; for `CCCC[C@H](NC(=O)O[C@@H]1CN(C(=O)NS(=O)(=O)c2ccc(C)cc2)CC1(C)C)C(=O)C(=O)N[C@H](C)c1ccccc1` [Example 76, (3S)-4,4-Dimethyl-1-({[(4-methylphenyl)sulfonyl]amino}carbonyl)pyrrolidinyl (1S)-1-(oxo{[(1R)-1-phenylethyl]amino}acetyl)pentylcarbamate], 100 to 1000 nM; for `CCCC[C@H](NC(=O)O[C@@H]1CN(C(=O)c2cc(C)on2)CC1(C)C)C(=O)C(=O)N[C@H](C)c1ccccc1` [Example 19, (3S)-4,4-Dimethyl-1-[(5-methyl-3-isoxazolyl)carbonyl]pyrrolidinyl (1S)-1-(oxo {[(1R)-1-phenylethyl]amino}acetyl)pentylcarbamate], 10 to 100 nM. Turning to `CCCC[C@H](NC(=O)OC1C(=O)N(Cc2ccccc2)CC1(C)C)C(=O)C(=O)N[C@H](C)c1ccccc1` (stereo partly drawn) [Example 4, 1-Benzyl-4,4-dimethyl-2-oxo-3-pyrrolidinyl (1S)-1-(oxo{[(1R)-1-phenylethyl]amino}acetyl)pentylcarbamate], the half-maximal inhibitory concentration (IC50) lay within 10 to 100 nM. Take `CCCC[C@H](NC(=O)O[C@@H]1CN(C(=O)c2cc3ccccc3[nH]2)CC1(C)C)C(=O)C(=O)N[C@H](C)c1ccccc1` [Example 32, (3S)-1-(1H-Indol-2-ylcarbonyl)-4,4-dimethylpyrrolidinyl (1S)-1-(oxo {[(1R)-1-phenylethyl]amino}acetyl)pentylcarbamate]: the IC50 was 10 to 100 nM. Under `CCCC[C@H](NC(=O)O[C@@H]1CN(C(=O)O[C@H]2CCOC2)CC1(C)C)C(=O)C(=O)N[C@H](C)c1ccccc1` [Example 43, (3S)-Tetrahydro-3-furanyl (4S)-3,3-dimethyl-4-[({[(1S)-1-(oxo{[(1R)-1-phenylethyl]amino}acetyl)pentyl]amino}carbonyl)oxy]-1-pyrrolidinecarboxylate] stands 10 to 100 nM. For `CCCC[C@H](NC(=O)O[C@@H]1CN(C(=O)OCC2CCCO2)CC1(C)C)C(=O)C(=O)N[C@H](C)c1ccccc1` (stereo partly drawn) [Example 41, Tetrahydro-2-furanylmethyl (4S)-3,3-dimethyl-4-[({[(1S)-1-(oxo{[(1R)-1-phenylethyl]amino}acetyl)pentyl]amino}carbonyl)oxy]-1-pyrrolidinecarboxylate], the concentration for half-maximal inhibition (IC50) is 1 to 10 nM. For `CCCC[C@H](NC(=O)O[C@@H]1CN(C(=O)c2ccc3c(c2)OCO3)CC1(C)C)C(=O)C(=O)N[C@H](C)c1ccccc1` [Example 16, (3S)-1-(1,3-Benzodioxol-5-ylcarbonyl)-4,4-dimethylpyrrolidinyl (1S)-1-(oxo{[(1R)-1-phenylethyl]amino}acetyl)pentylcarbamate], the half-inhibitory concentration (IC50) is 1 to 10 nM. For `CCCCC(NC(=O)O[C@@H]1CN(Cc2ccccc2)CC1(C)C)C(=O)C(=O)N[C@H](C)c1ccccc1` (stereo partly drawn) [Example 8, (3S)-1-Benzyl-4,4-dimethylpyrrolidinyl 1-(oxo{[(1R)-1-phenylethyl]amino}acetyl)pentylcarbamate] the value was 10 to 100 nM; for `CCCC[C@H](NC(=O)O[C@@H]1CN(C(=O)OCc2cn(-c3ccccc3)nn2)CC1(C)C)C(=O)C(=O)N[C@H](C)c1ccccc1` [Example 46, (1-Phenyl-1H-1,2,3-triazol-4-yl)methyl (4S)-3,3-dimethyl-4-[({[(1S)-1-(oxo{[(1R)-1-phenylethyl]amino}acetyl)pentyl]amino}carbonyl)oxy]-1-pyrrolidinecarboxylate], 1 to 10 nM; for `CCCC[C@H](NC(=O)O[C@@H]1CN(C(=O)Cc2csc(-c3cnccn3)n2)CC1(C)C)C(=O)C(=O)N[C@H](C)c1ccccc1` [Example 38, (3S)-4,4-Dimethyl-1-{[2-(2-pyrazinyl)-1,3-thiazol-4-yl]acetyl-}pyrrolidinyl (1S)-1-(oxo{[(1R)-1-phenylethyl]amino}acetyl)pentylcarbamate], 10 to 100 nM. Turning to `CCCCC(NC(=O)O[C@@H]1COCC1(C)C)C(=O)C(=O)N[C@H](C)c1ccccc1` (stereo partly drawn) [Example 83, (3S)-4,4-Dimethyltetrahydro-3-furanyl 1-(oxo{[(1R)-1-phenylethyl]amino}acetyl)pentylcarbamate], the IC50 lay within 10 to 100 nM. In the case of `CCCC[C@H](NC(=O)O[C@@H]1CN(S(=O)(=O)c2ccc3c(c2)OCO3)CC1(C)C)C(=O)C(=O)N[C@H](C)c1ccccc1` [Example 79, (3S)-1-(1,3-Benzodioxol-5-ylsulfonyl)-4,4-dimethylpyrrolidinyl (1S)-1-(oxo{[(1R)-1-phenylethyl]amino}acetyl)pentylcarbamate], the IC50 was 10 to 100 nM.
